Among the test systems are EKVX NSCLC; KM12 colon; MOLT-4 leukemia; OVCAR-3 ovarian; OVCAR-4 ovarian; SK-OV-3 ovarian; SNB-75 CNS; SW-620 colon; UACC-62 melanoma.
What all share (assay): NCI tumour cell line growth inhibition, 48 h

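The compound was tested at five concentrations on cells cultured in 96-well plates, with a 48-hour exposure period. GI50 = concentration required for 50% inhibition of growth. TGI is the concentration that stops growth completely.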

As to `CC1=NNC(=O)C2CCC(=O)N12` (centres undefined), the TGI with EKVX NSCLC, in the test with KM12 colon, with MOLT-4 leukemia, in the test on OVCAR-3 ovarian, with OVCAR-4 ovarian and in the test with SK-OV-3 ovarian was greater than 100 µM throughout. Besides, the TGI in the test on SNB-75 CNS and in the test on SW-620 colon was greater than 100 µM throughout.
Take `CN(C)c1nc2ccccc2[nH]1`: the TGI with EKVX NSCLC, in the test with KM12 colon, in the test on MOLT-4 leukemia, in the test on OVCAR-3 ovarian, in the test with OVCAR-4 ovarian and with SK-OV-3 ovarian was greater than 100 µM each time. Also, the TGI in the test on SNB-75 CNS, in the test with SW-620 colon and in the test with UACC-62 melanoma was greater than 100 µM each time.
Regarding `Cc1cc(CC(O)c2ccc(Cl)c(Cl)c2)nc(=O)[nH]1` (centres undefined), the TGI in the test on EKVX NSCLC is 96.7 µM; in the test on KM12 colon, greater than 100 µM; in the test with OVCAR-3 ovarian, greater than 100 µM; with OVCAR-4 ovarian, greater than 100 µM; with SK-OV-3 ovarian, greater than 100 µM; in the test with SNB-75 CNS, 48.8 µM. Also, the TGI in the test with SW-620 colon and with UACC-62 melanoma was greater than 100 µM throughout.
As for `Cn1c2ccccc2c2c3c(c4c5cc(Br)ccc5n(C)c4c21)C(=O)N(O)C3=O`, the GI50 in the test on KM12 colon is 0.426 µM; in the test with MOLT-4 leukemia, 0.0474 µM; in the test on SNB-75 CNS it was 0.0595 µM; with SW-620 colon, 0.127 µM; in the test on UACC-62 melanoma it was 0.308 µM. Further, the TGI with KM12 colon was greater than 100 µM; with MOLT-4 leukemia, 0.275 µM; with SNB-75 CNS, 0.659 µM; with SW-620 colon it was greater than 100 µM; in the test with UACC-62 melanoma it was greater than 100 µM.
With `[N-]=[N+]=NC12CC3C4CC5CC3C(C1)C(C5)C4C2`, the TGI in the test on EKVX NSCLC, in the test with KM12 colon, in the test on MOLT-4 leukemia, in the test on OVCAR-3 ovarian, with OVCAR-4 ovarian and in the test with SK-OV-3 ovarian was greater than 100 µM throughout. The TGI with SNB-75 CNS, with SW-620 colon and in the test with UACC-62 melanoma was greater than 100 µM in each case.
As to `CC1=C(C(=O)Nc2ccccc2)C(c2ccccc2)C(C(=O)Nc2ccccc2)=C(C)N1`, the TGI in the test with EKVX NSCLC, in the test on KM12 colon, in the test on MOLT-4 leukemia, in the test with OVCAR-3 ovarian, with OVCAR-4 ovarian and with SK-OV-3 ovarian was greater than 100 µM throughout. The TGI in the test on SNB-75 CNS, in the test with SW-620 colon and with UACC-62 melanoma was greater than 100 µM in each case.
As to `O=C(/C=C/c1ccccc1O)c1ccccc1O`, the TGI in the test on EKVX NSCLC, with KM12 colon, in the test with MOLT-4 leukemia, in the test on OVCAR-3 ovarian, with OVCAR-4 ovarian and in the test with SK-OV-3 ovarian was greater than 100 µM in each case. Besides, the TGI in the test with SNB-75 CNS, in the test on SW-620 colon and in the test with UACC-62 melanoma was greater than 100 µM throughout.
Turning to `S=C(Nc1ccccc1)N(/N=C/C=C/c1ccccc1)c1nnc(-c2ccccc2)c(-c2ccccc2)n1`, the TGI in the test on EKVX NSCLC, in the test on KM12 colon, in the test on MOLT-4 leukemia, in the test with OVCAR-3 ovarian, in the test on OVCAR-4 ovarian and with SK-OV-3 ovarian was greater than 100 µM throughout. Moreover, the TGI in the test with SNB-75 CNS, with SW-620 colon and with UACC-62 melanoma was greater than 100 µM in each case.
As to `COc1ccc2c3c([nH]c2c1[N+](=O)[O-])C(C)=NCC3`, the TGI with EKVX NSCLC, in the test on KM12 colon, in the test with MOLT-4 leukemia, with OVCAR-3 ovarian, in the test on OVCAR-4 ovarian and with SNB-75 CNS was greater than 100 µM throughout. Moreover, the TGI in the test with SW-620 colon was greater than 100 µM; in the test with UACC-62 melanoma, 62.3 µM.
Consider `CCCN=C(N)NC#N`, for which the TGI in the test on EKVX NSCLC, with KM12 colon, with MOLT-4 leukemia, with OVCAR-3 ovarian, with OVCAR-4 ovarian and with SK-OV-3 ovarian was greater than 100 µM throughout. In addition, the TGI in the test on SNB-75 CNS is greater than 100 µM; with SW-620 colon it was 30.8 µM; in the test on UACC-62 melanoma it was greater than 100 µM.
Turning to `Cc1ccc(NC(=O)C(=O)C(C(=O)c2ccc3ccccc3c2)C2OC(=O)c3ccccc32)cc1C` (centres undefined), the TGI in the test on EKVX NSCLC was greater than 100 µM; in the test on KM12 colon it was 47.1 µM; in the test on MOLT-4 leukemia, 25.9 µM; with OVCAR-3 ovarian, 48.6 µM; in the test on OVCAR-4 ovarian it was 40.6 µM; in the test with SK-OV-3 ovarian, greater than 100 µM. The TGI with SNB-75 CNS came to 7.34 µM; in the test on SW-620 colon, 63.7 µM; with UACC-62 melanoma it was 30.7 µM.
For the compound `Cc1ccc(Cc2c(=O)[nH]nc3ccccc23)cc1`, the TGI with EKVX NSCLC, with KM12 colon, with MOLT-4 leukemia, in the test with OVCAR-3 ovarian, with OVCAR-4 ovarian and in the test on SK-OV-3 ovarian was greater than 100 µM throughout. For the same compound, the TGI with SNB-75 CNS, in the test on SW-620 colon and in the test with UACC-62 melanoma was greater than 100 µM in each case.
For the compound `CC(C)N(C(=O)C12C3C4C5(C#N)C3C1(C#N)C5C42I)C(C)C` (centres undefined), the TGI in the test on EKVX NSCLC, in the test with KM12 colon, in the test on MOLT-4 leukemia, with OVCAR-3 ovarian, in the test with OVCAR-4 ovarian and in the test with SK-OV-3 ovarian was greater than 100 µM throughout. The TGI is greater than 100 µM with SNB-75 CNS, greater than 66 µM in the test with SW-620 colon and greater than 100 µM in the test with UACC-62 melanoma.
`COc1cc(C(Cc2ccccc2)NC(C)=O)oc(=O)c1` (centres undefined): the TGI in the test with EKVX NSCLC, with KM12 colon, with OVCAR-3 ovarian, with OVCAR-4 ovarian, with SK-OV-3 ovarian and in the test on SNB-75 CNS was greater than 100 µM throughout. Besides, the TGI with SW-620 colon and in the test on UACC-62 melanoma was greater than 100 µM in each case.
For the compound `CC(C)(C)CC(C)(C)c1cc2c(O)c(c1)Cc1cc(C(C)(C)CC(C)(C)C)cc(c1O)Cc1cc(C(C)(C)CC(C)(C)C)cc(c1O)Cc1cc(C(C)(C)CC(C)(C)C)cc(c1O)C2`, the TGI in the test with EKVX NSCLC, in the test on KM12 colon, in the test on MOLT-4 leukemia, with OVCAR-3 ovarian, in the test with OVCAR-4 ovarian and in the test with SNB-75 CNS was greater than 100 µM in each case. Further, the TGI in the test on SW-620 colon and with UACC-62 melanoma was greater than 100 µM throughout.
Regarding `COc1cccc(/C=C/c2cc(OC)c(OC)c(OC)c2)c1`, the TGI is greater than 100 µM with EKVX NSCLC; greater than 100 µM with KM12 colon; greater than 100 µM in the test with MOLT-4 leukemia; greater than 100 µM in the test on OVCAR-3 ovarian; greater than 100 µM with SK-OV-3 ovarian; 60.1 µM in the test with SNB-75 CNS. For the same compound, the TGI in the test on SW-620 colon and in the test with UACC-62 melanoma was greater than 100 µM in each case.

The values above are taken from PubChem BioAssay (NCI).
